≈ marks a conversion by molar mass, not a printed value. Where “and” joins values, the source holds several entries; their conditions need not be identical. Equal values may be shown once. Read-outs that look alike come from different tables or passages of the source.
Key:
[1] = Excerpt: (§1) Tryptophan emission is a sensitive indicator for the physical environment surrounding the amino acid (˜330 nm in a folded or hydrophobic environment; ˜355 nm in an unfolded or aqueous environment).
[2] = remark: listed apart in the source
Excerpt: Sequestration of tryptophan (Trp) can be observed through blue shift in wavelength of photon emission after excitation at 290 nm. […] (c) overlay of emission spectra.
as §1

[3] = ANTS/DPX leakage from lipid vesicles; details: incubated with lipid vesicles for 1 hour
Description: Both delta-haemolysin and PSMdelta were evaluated for their ability to perforate synthetic lipid vesicles. Lipid vesicles were made with a 2:1 molar ratio of POPC to POPG. The lipid vesicles, extruded through a 200 nm polycarbonate film, encapsulated the fluorescent dye, ANTS, and a quencher: DPX. Upon membrane perforation, ANTS/DPX are released and separated, allowing ANTS to fluoresce at 530 nm.

[4] = tested on: GAS membranes; assay: SEM analysis of GAS membranes; format: cell-based, Group A Streptococcus; details: 16 μM peptide
[5] = tested on: GAS

Compound: CC[C@H](C)[C@H](NC(=O)[C@H](Cc1c[nH]c2ccccc12)NC(=O)[C@H](CCCCN)NC(=O)[C@@H](NC(=O)[C@H](CC(C)C)NC(=O)[C@H](CC(=O)O)NC(=O)CNC(=O)[C@@H](NC(=O)[C@@H](NC(=O)[C@H](CO)NC(=O)[C@@H](NC(=O)[C@@H](NC(=O)[C@H](CC(=O)O)NC(=O)[C@H](C)NC(=O)[C@H](C)NC(=O)[C@@H](N)CCSC)[C@@H](C)CC)[C@@H](C)CC)[C@@H](C)O)[C@@H](C)CC)C(C)C)C(=O)N[C@H](C(=O)N[C@@H](CC(=O)O)C(=O)N[C@H](C(=O)N[C@H](C(=O)N[C@@H](CC(N)=O)C(=O)N[C@@H](CCCCN)C(=O)N[C@@H](Cc1ccccc1)C(=O)N[C@@H](CCCCN)C(=O)N[C@@H](CCCCN)C(=O)O)C(C)C)[C@@H](C)O)[C@@H](C)CC [delta-haemolysin]
- deltaG^1(H2O) ([1]; 5 μM peptide): 1.43 kcal/mol
- midpoint of the unfolding curve ([1]; 5 μM peptide): 2.14 M urea
- deltaG^1(H2O) ([1]; 25 μM peptide): 1.57 kcal/mol
- midpoint of the unfolding curve ([1]; 25 μM peptide): 3.20 M urea and 3.2 M urea
- deltaG^1(H2O) ([1]; 25 μM peptide, figure legend): 1.57 kcal/mol
- tryptophan emission ([2]; before incubation with lipid vesicles): 339 nm
- tryptophan emission ([2]; incubation with lipid vesicles): 332 nm
- tryptophan emission ([2]; lipid vesicles plus urea): 335 nm
- ANTS fluorescence at 530 nm (vesicle leakage) [3]: Dose-dependent fluorescence
- membrane effect seen by SEM [4]: membrane blebbing and disruption
- MBC [5]: 16 µM (≈ 45.1 µg/mL)
- MIC [5]: 8 µM (≈ 22.6 µg/mL)
- MIC ([5]; listed as Synthetic delta-haemolysin): 16 µM (≈ 45.1 µg/mL)
- MIC of delta-haemolysin in the presence of PSMdelta ([5]; with 2 μM PSMdelta): 4 µM

Compound: CRAMP [reference compound]
- membrane effect seen by SEM [4]: Membrane disruption

Compound: MSIVSTIIEVVKTIVDIVKKFKK (listed as Staphylococcus epidermidis) [PSMdelta, peptide identified in S. epidermidis fraction 37, tested as synthetic peptide]
- ANTS fluorescence at 530 nm (vesicle leakage) [3]: Dose-dependent fluorescence

— patent publication US20100166708A1, “ANTIMICROBIAL AND ANTI-INFLAMMATORY THERAPIES AND COMPOSITIONS” (THE REGENTS OF THE UNIVERSITY OF CALIFORNIA, priority 2007, published 2010)
